One assay deals with T1, HDAC3 (Homo sapiens, UniProt O15379).
T1 construct: purchased BPS Bioscience
Description: In vitro HDAC inhibition fluorescence assay, HDAC3. The class given is biochemical. Here is the method:
All of the HDAC enzymes were purchased from BPS Bioscience. In vitro HDAC inhibition assays were conducted as previously described. In brief, 20 μL of recombinant HDAC enzyme solution (HDAC1-9, 11) was mixed with various concentrations of the tested compound (20 μL). […] After incubation at 37 °C for 2 h, the catalysis was stopped by the addition of 10 μL of developer containing 30 mg/mL trypsin and 6 μM trichostatin A (TSA). Then, 30 min later, the fluorescence intensity was measured using a microplate reader at excitation and emission wavelengths of 360 and 460 nm, respectively. The inhibition ratios were calculated from the fluorescence intensity readings of tested wells relative to those of control wells, and the IC50 curves and values were determined by GraphPad Prism 6.0, using the “log(inhibitor) vs. normalized response-variable slope” function.

For a further assay, the target named is T2, HDAC6 (Homo sapiens, UniProt Q9UBN7).
T2 construct: purchased BPS Bioscience
T2 sequence (Q9UBN7 1-1215): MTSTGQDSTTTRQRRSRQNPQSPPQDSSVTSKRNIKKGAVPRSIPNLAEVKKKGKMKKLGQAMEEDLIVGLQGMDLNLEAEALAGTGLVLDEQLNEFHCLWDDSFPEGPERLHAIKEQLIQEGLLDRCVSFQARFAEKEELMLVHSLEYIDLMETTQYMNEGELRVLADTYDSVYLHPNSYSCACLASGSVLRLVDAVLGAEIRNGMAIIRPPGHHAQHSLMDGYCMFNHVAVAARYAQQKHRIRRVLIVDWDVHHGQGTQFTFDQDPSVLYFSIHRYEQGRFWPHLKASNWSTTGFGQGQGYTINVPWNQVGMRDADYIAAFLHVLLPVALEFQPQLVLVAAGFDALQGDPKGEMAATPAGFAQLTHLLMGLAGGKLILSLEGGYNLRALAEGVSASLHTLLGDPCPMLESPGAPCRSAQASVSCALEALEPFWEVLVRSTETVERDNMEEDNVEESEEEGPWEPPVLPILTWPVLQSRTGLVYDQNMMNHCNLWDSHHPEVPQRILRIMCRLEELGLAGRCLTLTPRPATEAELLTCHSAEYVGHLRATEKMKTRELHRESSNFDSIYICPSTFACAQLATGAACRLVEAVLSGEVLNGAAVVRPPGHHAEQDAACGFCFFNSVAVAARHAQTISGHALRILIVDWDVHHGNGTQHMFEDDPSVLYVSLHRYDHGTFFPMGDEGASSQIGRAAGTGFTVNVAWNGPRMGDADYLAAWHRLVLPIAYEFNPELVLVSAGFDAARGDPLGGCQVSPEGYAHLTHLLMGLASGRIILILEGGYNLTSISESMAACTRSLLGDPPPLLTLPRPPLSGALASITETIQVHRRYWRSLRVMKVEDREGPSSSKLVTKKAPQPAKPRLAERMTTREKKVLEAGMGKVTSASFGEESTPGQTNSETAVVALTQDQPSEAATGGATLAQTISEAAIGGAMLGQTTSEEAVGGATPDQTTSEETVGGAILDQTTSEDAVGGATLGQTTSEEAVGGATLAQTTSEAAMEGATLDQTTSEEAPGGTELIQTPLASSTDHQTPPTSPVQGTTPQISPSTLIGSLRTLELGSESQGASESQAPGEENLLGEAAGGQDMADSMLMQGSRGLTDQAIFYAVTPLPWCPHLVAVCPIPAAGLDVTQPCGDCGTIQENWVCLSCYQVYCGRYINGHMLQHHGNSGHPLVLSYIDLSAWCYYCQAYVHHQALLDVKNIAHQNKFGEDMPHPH
Description: In vitro HDAC inhibition fluorescence assay, HDAC6. The class given is biochemical. Here is the method: (§1) All of the HDAC enzymes were purchased from BPS Bioscience. In vitro HDAC inhibition assays were conducted as previously described. In brief, 20 μL of recombinant HDAC enzyme solution (HDAC1-9, 11) was mixed with various concentrations of the tested compound (20 μL). The mixture was incubated at 37 °C for 1 h, and then, 10 μL of fluorogenic substrate (Boc-Lys (acetyl)-AMC for HDAC1, 2, 3 and 6; Boc-Lys (trifluoroacetyl)AMC for HDAC4, 5, 7, 8, 9 and 11) was added to achieve a final concentration of 50 μM. After incubation at 37 °C for 2 h, the catalysis was stopped by the addition of 10 μL of developer containing 30 mg/mL trypsin and 6 μM trichostatin A (TSA). Then, 30 min later, the fluorescence intensity was measured using a microplate reader at excitation and emission wavelengths of 360 and 460 nm, respectively. The inhibition ratios were calculated from the fluorescence intensity readings of tested wells relative to those of control wells, and the IC50 curves and values were determined by GraphPad Prism 6.0, using the “log(inhibitor) vs. normalized response-variable slope” function.

For another assay, the target named is T3, HDAC11 (Homo sapiens, UniProt Q96DB2).
T3 construct: purchased BPS Bioscience
T3 sequence (Q96DB2 1-347): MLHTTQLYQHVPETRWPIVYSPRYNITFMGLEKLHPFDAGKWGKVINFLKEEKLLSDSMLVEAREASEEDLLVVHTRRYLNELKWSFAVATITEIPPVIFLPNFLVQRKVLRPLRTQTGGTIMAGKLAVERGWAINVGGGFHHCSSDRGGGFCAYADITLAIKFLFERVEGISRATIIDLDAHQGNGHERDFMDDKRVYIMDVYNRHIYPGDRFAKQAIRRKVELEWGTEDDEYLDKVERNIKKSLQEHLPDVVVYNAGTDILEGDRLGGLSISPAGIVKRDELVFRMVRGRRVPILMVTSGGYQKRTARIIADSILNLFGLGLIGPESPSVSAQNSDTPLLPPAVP
The assay is described as follows: In vitro HDAC inhibition fluorescence assay, HDAC11. It counts as biochemical. Here is the method: as §1

The subject of another assay is MV4-11 cells. The assay is described as follows: Cell viability assay (resazurin), MV4-11. The class given is cell-based. To be noted: Homo sapiens, MV4-11, 72 h; read-out: IC50 anti-proliferative activity MV4-11. The protocol:
The AML cell lines MV4-11, THP-1, KASUMI-1 and HL-60 were purchased from Procell Life Science & Technology Co., Ltd. (Wuhan, China). THP-1 and KASUMI-1 were cultured in RPMI-1640 complete medium containing 10% fetal bovine serum and 1% penicillin and streptomycin. MV4-11 was cultured in IMDM complete medium containing 10% fetal bovine serum and 1% penicillin and streptomycin. HL-60 was cultured in IMDM complete medium containing 20% fetal bovine serum and 1% penicillin and streptomycin. All cell lines were cultured in an incubator with humidity set at 95%, temperature at 37 °C and 5% CO2.
MV4-11, THP-1, KASUMI-1 and HL-60 cells were plated in 96-well transparent plates (10,000 to 15,000 cells/100 μL) and after incubation overnight, cells were treated with gradient-diluted inhibitors with several concentrations. After the cells were incubated with inhibitors for 72 h, 1 mg/mL of Resazurin (Sigma-Aldrich, Saint Louis, MO, USA) was added (working concentration was 0.1 mg/mL). After incubation at 37 °C for about 3 h, the fluorescence intensity of […] was measured at 560 nm/590 nm (excitation/emission) with a Spectra Max i3 Microplate Reader, and the cell viability was determined. The IC50 curve was drawn using GraphPad Prism 9.5 software.
For orientation: The colour change of resazurin is a common sign of viable cells or microbes.

Molecules are shown by their SMILES. Where “and” joins values, the source holds several entries; their conditions need not be identical. Equal values may be shown once.

T1 sequence (O15379 whole entry): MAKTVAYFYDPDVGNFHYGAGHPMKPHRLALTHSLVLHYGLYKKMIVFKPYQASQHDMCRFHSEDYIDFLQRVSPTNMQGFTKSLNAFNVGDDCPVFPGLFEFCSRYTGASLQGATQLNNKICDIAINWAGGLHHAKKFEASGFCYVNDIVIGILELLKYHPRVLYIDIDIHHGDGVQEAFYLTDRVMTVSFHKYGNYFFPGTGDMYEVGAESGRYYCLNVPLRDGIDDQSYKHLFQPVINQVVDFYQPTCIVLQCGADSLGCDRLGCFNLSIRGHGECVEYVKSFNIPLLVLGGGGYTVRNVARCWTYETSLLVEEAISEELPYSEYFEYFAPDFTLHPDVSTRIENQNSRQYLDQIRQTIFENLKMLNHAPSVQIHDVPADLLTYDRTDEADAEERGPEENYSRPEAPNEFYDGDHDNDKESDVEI
T1 sequence (Q9Y618 395-489 partner limits assumed): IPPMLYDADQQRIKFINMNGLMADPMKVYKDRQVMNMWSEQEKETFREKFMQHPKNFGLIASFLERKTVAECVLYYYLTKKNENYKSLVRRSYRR

On to `CCCNNC(=O)C=Cc1ccc(CNCCc2ccccc2)cc1` [Compound 25c, 3-(4-((Phenethylamino)methyl)phenyl)-N′-propylacrylohydrazide], for which the IC50 (usually the concentration that inhibits the measured activity by half) was 2.4 nM and 2.39 nM and 2.3 nM on HDAC3; over 10000 nM against HDAC6; over 10000 nM against HDAC11; 340 ± 117 nM in the assay on MV4-11 cells. The inhibition (in general, how much of the control response was suppressed) at 0.01 µM on HDAC3 (10 nM, read-out: Inhibition Rate of HDAC3 (%)) is over 95%. The inhibition at 0.1 µM at HDAC3 (100 nM, read-out: Inhibition Rate of HDAC3 (%)) came to 95.1 ± 0.1%.

The record behind these values is PMC11204923, “Marine Cytotoxin Santacruzamate A Derivatives as Potent HDAC1-3 Inhibitors and Their Synergistic Anti-Leukemia Effects with Venetoclax” (Marine Drugs, 2024).
